Source: ChEMBL document CHEMBL2157963, “Synthesis and in vitro antitumour screening of 2-(β-D-xylofuranosyl)thiazole-4-carboxamide and two novel tiazofurin analogues with substituted tetrahydrofurodioxol moiety as a sugar mimic” (Bioorg Med Chem Lett, 2012)
Active and inactive are the calls of the source. The calls are words filed in the database; no cut-off is given here.

How the values were obtained:
MRC5 = assay: Cytotoxicity against human MRC5 cells after 72 hrs by MTT assay; assay type: cell-based; settings: MRC5, 72 h
HL-60 [1] = assay: Cytotoxicity against human HL60 cells after 72 hrs by MTT assay; assay type: functional, cell-based; settings: HL-60, 72 h
Jurkat = assay: Cytotoxicity against human Jurkat cells after 72 hrs by MTT assay; assay type: functional, cell-based
HeLa [2] = assay: Cytotoxicity against human HeLa cells after 72 hrs by MTT assay; assay type: functional, cell-based
Raji = assay: Cytotoxicity against human Raji cells after 72 hrs by MTT assay; assay type: functional, cell-based
K562 [3] = assay: Cytotoxicity against human K562 cells after 72 hrs by MTT assay; assay type: functional, cell-based; settings: K562, 72 h
K562 [4] = assay: Ratio of tiazofurin IC50 to compound IC50 for human K562 cells; assay type: functional
MCF7 = assay: Cytotoxicity against human MCF7 cells; assay type: functional, cell-based
MDA-MB-231 = assay: Cytotoxicity against human MDA-MB-231 cells; assay type: functional, cell-based
HT-29 = assay: Cytotoxicity against human HT-29 cells; assay type: functional, cell-based
K562 [5] = assay: Induction of apoptosis in human K562 cells at IC50 concentration after 24 hrs by AnnexinV staining-based flow cytometric analysis; assay type: functional, cell-based
HeLa [6] = assay: Ratio of tiazofurin IC50 to compound IC50 for human HeLa cells; assay type: functional
K562 [7] = assay: Cytotoxicity against human K562 cells after 72 hrs by SRB assay; assay type: functional, cell-based; settings: K562, 72 h
K562 [8] = assay: Cytotoxicity against human K562 cells after 72 hrs by DET assay; assay type: functional, cell-based; settings: K562, 72 h
K562 [9] = assay: Induction of apoptosis in human K562 cells assessed as apoptotic cells at IC50 concentration after 72 hrs by AnnexinV staining-based flow cytometric analysis relative to tiazofurin; assay type: functional
HL-60 [10] = assay: Ratio of tiazofurin IC50 to compound IC50 for human HL60 cells; assay type: functional

SMILES | IC50 (MRC5) [nM] | IC50 (HL-60 [1]) [nM] | IC50 (Jurkat) [nM] | IC50 (HeLa [2]) [nM] | IC50 (Raji) [nM] | IC50 (K562 [3]) [nM] | Ratio IC50 (K562 [4]) | IC50 (MCF7) [nM] | IC50 (MDA-MB-231) [nM] | IC50 (HT-29) [nM] | Activity (K562 [5]) | Ratio IC50 (HeLa [6]) | Activity (MCF7) | Activity (MDA-MB-231) | IC50 (K562 [7]) [nM] | IC50 (K562 [8]) [nM] | fold change (FC) (K562 [9]) | Activity (HT-29) | Ratio IC50 (HL-60 [10])
C[C@]1(c2nc(C(N)=O)cs2)O[C@H]2O[C@H](CO)[C@H](O)[C@H]2O1 | > 100000 | 340 | 640 | 640 | 5610 | 20 | 100 |  |  |  |  |  |  |  |  |  |  |  | 
NC(=O)c1csc([C@@H]2O[C@H](CO)[C@@H](O)[C@H]2O)n1 [TIAZOFURIN] | 360 | 190 | 40 | 3820 | 5280 | 2090 |  | 260 | 260 | 260 |  |  |  |  |  |  |  |  | 
NC(=O)c1csc([C@@H]2O[C@H](CO)[C@H](O)[C@H]2O)n1 | > 100000 | 130 | 530 | 80 | 3110 | 150 |  |  |  |  | Active | 48 | inactive | inactive | 416 | 100 | 7 | inactive | 
C[C@@]1(c2nc(C(N)=O)cs2)O[C@H]2O[C@H](CO)[C@H](O)[C@H]2O1 | > 100000 | 50 | 590 | 60 | 2640 | 100 |  |  |  |  |  | 64 |  |  |  |  |  |  | 4
